Key:
Format in all cases: in vivo
Aegilops tauschii [1] = assay: Soil sealing treatment pot experiment for controlling Aegilops tauschii, more mixing ratios (Example 3)
Source text: (§1) Referring to an article of Colby, S. R. i.e., Calculation of the synergistic and antagonistic response of herbicide combinations. Weeds 1967, 15, pp. 20-22 (which is incorporated herein in its entirety by reference), the theoretical value E0 of a given mixture of three active ingredients may be predicted according to the following equation, then evaluating whether there is synergy.
(§2) [formula] • wherein: • E0 is the theoretical fresh weight survival rate for the mixture of pyroxasulfone, chlorotoluron and […]; • X is the measured fresh weight survival rate for pyroxasulfone used alone in the same dosage as that in the mixture; • Y is the measured fresh weight survival rate for chlorotoluron used alone in the same dosage as that in the mixture; • Z is the measured fresh weight survival rate for mesosulfuron-methyl used alone in the same dosage as that in the mixture. • E is the measured fresh weight survival rate for the mixture of pyroxasulfone, chlorotoluron and mesosulfuron-methyl. • E0-E value is calculated to evaluate the combined effect of pyroxasulfone, chlorotoluron and mesosulfuron-methyl on the selected weeds.
(§3) In this example, the herbicidal activity of a mixture of pyroxasulfone, chlorotoluron and mesosulfuron-methyl for soil sealing treatment to control Aegilops tauschii is investigated by a pot experiment method under the conditions of a glass greenhouse. This example is carried out in accordance with “NY/T 1155.4-2006 Guidelines for Indoor Bioassay Tests of Pesticides, Herbicides Part 4: Activity Determination Tests, Stem and Leaf Spray Method”.
(§4) • Pyroxasulfone: pyroxasulfone (850 g/Kg, WG) from Adama Agan LTD. • Chlorotoluron: chlorotoluron (90 wt %, WG) from Adama Agan LTD. • Mesosulfuron-methyl: Sigma (30 g/L, OD) from Bayer AG. • Test location: Greenhouse of Institute of Plant Protection, Shandong Academy of Agricultural Sciences • Cultivation of test materials: The test soil is formed by mixing the 20 cm layer loam on the ground surface and the culture medium in a ratio of 3:1 as cultivation soil.
(§5) The test weeds are cultivated in a glass greenhouse at a temperature of 15-30° C. and natural light. A certain amount of Aegilops tauschil seeds are sown in a plastic pot with a diameter of 9 cm, covering with 1-2 mm soil, and putting them in an enamel dish filled with water. The bottom infiltration method is used to water them, waiting for the water to seep to the soil surface, and then transferring to a glass greenhouse for cultivation. The agents are applied on the second day after sowing Aegilops tauschii seeds.
(§6) For each active ingredient, the multiple dilution method is used to obtain the other five lower dosages from the highest dosage. A certain amount of agent is measured by pipette or balance, adding it directly to the water, and then diluting it to the required dosage by the multiple dilution method.
(§7) Spraying treatment: ASS-4 automatic control spraying system with a fan-shaped nozzle is used indoors to spray agent, the running speed is adjusted based on nozzle pressure, flow rate, etc. to spray 50 mL of chemical solution on the actual spray area of 1.1 m^2 (equivalent to 30 liters per mu), arranging the plastic pots to be processed on the spraying table evenly, and spraying evenly. The spraying pressure is 0.35 MPa, and the flow rate of the fan-shaped nozzle is 800 mL/min, spraying in order from low dosage to high dosage. Each treatment is repeated 3 times. After spraying, let it dry for one day, placing it in a glass greenhouse, and watering it regularly to keep moist.
Weed investigation method and time: after applying the agent, the symptoms of weed damage (such as growth inhibition, chlorosis, deformity, etc.) are recorded in detail. After 35 days, the fresh weight of aerial part of the weeds in each treatment is weighed, and the measured fresh weight inhibition rate and the measured fresh weight survival rate for each treatment are calculated according to the following equations: […]

Aegilops tauschii [2] = assay: Soil sealing treatment pot experiment for controlling Aegilops tauschii (Example 1); conditions: for control effect on Aegilops tauschii: single active ingredient, summary of Table 2
Source text: as §1, §2, §3, §4, §5, §6, §7
Application time and frequency: the experiment is conducted on the second day after sowing Aegilops tauschii seeds, and the soil is evenly sprayed. The application time is Mar. 10, 2020, with one application.
Weed investigation method and time: after applying the agent, the symptoms of weed damage (such as growth inhibition, chlorosis, deformity, etc.) are recorded in detail. […]

Lolium multiflorum Lamk = assay: Soil sealing treatment pot experiment for controlling Lolium multiflorum Lamk (Example 2); conditions: 35 days

Cc1ccc(NC(=O)N(C)C)cc1Cl [chlorotoluron, 3-(3-chloro-4-methylphenyl)-N,N-dimethylurea]
Actual fresh weight survival rate (%) - E (Aegilops tauschii [1]; 562.5 gai/ha): 80.2% | Actual fresh weight survival rate (%) - E (Aegilops tauschii [1]; 1125 gai/ha): 72.4% | Actual fresh weight survival rate (%) - E (Aegilops tauschii [1]; 2250 gai/ha): 52.6% | inhibition at 562.5 g/ha (Aegilops tauschii [1]; Aegilops tauschii, soil, 562.5 gai/ha, read-out: Actual fresh weight inhibition rate %): 19.8% | inhibition at 1125 g/ha (Aegilops tauschii [1]; Aegilops tauschii, soil, 1125 gai/ha, read-out: Actual fresh weight inhibition rate %): 27.6% | inhibition at 2250 g/ha (Aegilops tauschii [1]; Aegilops tauschii, soil, 2250 gai/ha, read-out: Actual fresh weight inhibition rate %): 47.4% | Measured fresh weight survival rate (%) - E (Aegilops tauschii [2]; 70.3125 gai/ha, 35 days): 102.6% | Measured fresh weight survival rate (%) - E (Aegilops tauschii [2]; 140.625 gai/ha, 35 days): 101.3% | Measured fresh weight survival rate (%) - E (Aegilops tauschii [2]; 281.25 gai/ha, 35 days): 92.21% | Measured fresh weight survival rate (%) - E (Aegilops tauschii [2]; 562.5 gai/ha, 35 days): 81.82% | Measured fresh weight survival rate (%) - E (Aegilops tauschii [2]; 1125 gai/ha, 35 days): 72.73% | Measured fresh weight survival rate (%) - E (Aegilops tauschii [2]; 2250 gai/ha, 35 days): 36.36% | inhibition at 70.3125 g/ha (Aegilops tauschii [2]; Aegilops tauschii, soil, 840 h, 70.3125 gai/ha, 35 days, read-out: Measured fresh weight inhibition rate (%)): -2.6% | inhibition at 140.625 g/ha (Aegilops tauschii [2]; Aegilops tauschii, soil, 840 h, 140.625 gai/ha, 35 days, read-out: Measured fresh weight inhibition rate (%)): -1.3% | inhibition at 281.25 g/ha (Aegilops tauschii [2]; Aegilops tauschii, soil, 840 h, 281.25 gai/ha, 35 days, read-out: Measured fresh weight inhibition rate (%)): 7.79% | inhibition at 562.5 g/ha (Aegilops tauschii [2]; Aegilops tauschii, soil, 840 h, 562.5 gai/ha, 35 days, read-out: Measured fresh weight inhibition rate (%)): 18.2% | inhibition at 1125 g/ha (Aegilops tauschii [2]; Aegilops tauschii, soil, 840 h, 1125 gai/ha, 35 days, read-out: Measured fresh weight inhibition rate (%)): 27.3% | inhibition at 2250 g/ha (Aegilops tauschii [2]; Aegilops tauschii, soil, 840 h, 2250 gai/ha, 35 days, read-out: Measured fresh weight inhibition rate (%)): 63.6% | control effect on Aegilops tauschii (Aegilops tauschii [2]): certain effect | Measured fresh weight survival rate (%) - E (Lolium multiflorum Lamk; 70.3125 gai/ha): 96.7% | Measured fresh weight survival rate (%) - E (Lolium multiflorum Lamk; 140.625 gai/ha): 91.21% | Measured fresh weight survival rate (%) - E (Lolium multiflorum Lamk; 281.25 gai/ha): 87.91% | Measured fresh weight survival rate (%) - E (Lolium multiflorum Lamk; 562.5 gai/ha): 83.52% | Measured fresh weight survival rate (%) - E (Lolium multiflorum Lamk; 1125 gai/ha): 25.27% | Measured fresh weight survival rate (%) - E (Lolium multiflorum Lamk; 2250 gai/ha): 0% | inhibition at 70.3125 g/ha (Lolium multiflorum Lamk; Lolium multiflorum, soil, 840 h, 70.3125 gai/ha, read-out: Measured fresh weight inhibition rate (%)): 3.3% | inhibition at 140.625 g/ha (Lolium multiflorum Lamk; Lolium multiflorum, soil, 840 h, 140.625 gai/ha, read-out: Measured fresh weight inhibition rate (%)): 8.79% | inhibition at 281.25 g/ha (Lolium multiflorum Lamk; Lolium multiflorum, soil, 840 h, 281.25 gai/ha, read-out: Measured fresh weight inhibition rate (%)): 12.1% | inhibition at 562.5 g/ha (Lolium multiflorum Lamk; Lolium multiflorum, soil, 840 h, 562.5 gai/ha, read-out: Measured fresh weight inhibition rate (%)): 16.5% | inhibition at 1125 g/ha (Lolium multiflorum Lamk; Lolium multiflorum, soil, 840 h, 1125 gai/ha, read-out: Measured fresh weight inhibition rate (%)): 74.7% | inhibition at 2250 g/ha (Lolium multiflorum Lamk; Lolium multiflorum, soil, 840 h, 2250 gai/ha, read-out: Measured fresh weight inhibition rate (%)): 100%

COC(=O)c1ccc(CNS(C)(=O)=O)cc1S(=O)(=O)NC(=O)Nc1nc(OC)cc(OC)n1 [mesosulfuron-methyl, 2-[3-(4,6-dimethoxypyrimidin-2-yl)ureasulfonyl]-4-methylsulfonamide methyl benzoate]
Actual fresh weight survival rate (%) - E (Aegilops tauschii [1]; 5 gai/ha): 93.1% | Actual fresh weight survival rate (%) - E (Aegilops tauschii [1]; 10 gai/ha): 88.8% | Actual fresh weight survival rate (%) - E (Aegilops tauschii [1]; 20 gai/ha): 76.7% | inhibition at 5 g/ha (Aegilops tauschii [1]; Aegilops tauschii, soil, 5 gai/ha, read-out: Actual fresh weight inhibition rate %): 6.9% | inhibition at 10 g/ha (Aegilops tauschii [1]; Aegilops tauschii, soil, 10 gai/ha, read-out: Actual fresh weight inhibition rate %): 11.2% | inhibition at 20 g/ha (Aegilops tauschii [1]; Aegilops tauschii, soil, 20 gai/ha, read-out: Actual fresh weight inhibition rate %): 23.3% | Measured fresh weight survival rate (%) - E (Aegilops tauschii [2]; 1.25 gai/ha, 35 days): 96.1% | Measured fresh weight survival rate (%) - E (Aegilops tauschii [2]; 2.5 gai/ha, 35 days): 100% | Measured fresh weight survival rate (%) - E (Aegilops tauschii [2]; 5 gai/ha, 35 days): 94.81% | Measured fresh weight survival rate (%) - E (Aegilops tauschii [2]; 10 gai/ha, 35 days): 83.12% | Measured fresh weight survival rate (%) - E (Aegilops tauschii [2]; 20 gai/ha, 35 days): 71.43% | Measured fresh weight survival rate (%) - E (Aegilops tauschii [2]; 40 gai/ha, 35 days): 88.31% | inhibition at 1.25 g/ha (Aegilops tauschii [2]; Aegilops tauschii, soil, 840 h, 1.25 gai/ha, 35 days, read-out: Measured fresh weight inhibition rate (%)): 3.9% | inhibition at 2.5 g/ha (Aegilops tauschii [2]; Aegilops tauschii, soil, 840 h, 2.5 gai/ha, 35 days, read-out: Measured fresh weight inhibition rate (%)): 0% | inhibition at 5 g/ha (Aegilops tauschii [2]; Aegilops tauschii, soil, 840 h, 5 gai/ha, 35 days, read-out: Measured fresh weight inhibition rate (%)): 5.19% | inhibition at 10 g/ha (Aegilops tauschii [2]; Aegilops tauschii, soil, 840 h, 10 gai/ha, 35 days, read-out: Measured fresh weight inhibition rate (%)): 16.9% | inhibition at 20 g/ha (Aegilops tauschii [2]; Aegilops tauschii, soil, 840 h, 20 gai/ha, 35 days, read-out: Measured fresh weight inhibition rate (%)): 28.6% | inhibition at 40 g/ha (Aegilops tauschii [2]; Aegilops tauschii, soil, 840 h, 40 gai/ha, 35 days, read-out: Measured fresh weight inhibition rate (%)): 11.7% | control effect on Aegilops tauschii (Aegilops tauschii [2]): substantively ineffective | Measured fresh weight survival rate (%) - E (Lolium multiflorum Lamk; 1.25 gai/ha): 96.7% | Measured fresh weight survival rate (%) - E (Lolium multiflorum Lamk; 2.5 gai/ha): 94.51% | Measured fresh weight survival rate (%) - E (Lolium multiflorum Lamk; 5 gai/ha): 83.52% | Measured fresh weight survival rate (%) - E (Lolium multiflorum Lamk; 10 gai/ha): 60.44% | Measured fresh weight survival rate (%) - E (Lolium multiflorum Lamk; 20 gai/ha): 39.56% | Measured fresh weight survival rate (%) - E (Lolium multiflorum Lamk; 40 gai/ha): 6.59% | inhibition at 1.25 g/ha (Lolium multiflorum Lamk; Lolium multiflorum, soil, 840 h, 1.25 gai/ha, read-out: Measured fresh weight inhibition rate (%)): 3.3% | inhibition at 2.5 g/ha (Lolium multiflorum Lamk; Lolium multiflorum, soil, 840 h, 2.5 gai/ha, read-out: Measured fresh weight inhibition rate (%)): 5.49% | inhibition at 5 g/ha (Lolium multiflorum Lamk; Lolium multiflorum, soil, 840 h, 5 gai/ha, read-out: Measured fresh weight inhibition rate (%)): 16.5% | inhibition at 10 g/ha (Lolium multiflorum Lamk; Lolium multiflorum, soil, 840 h, 10 gai/ha, read-out: Measured fresh weight inhibition rate (%)): 39.6% | inhibition at 20 g/ha (Lolium multiflorum Lamk; Lolium multiflorum, soil, 840 h, 20 gai/ha, read-out: Measured fresh weight inhibition rate (%)): 60.4% | inhibition at 40 g/ha (Lolium multiflorum Lamk; Lolium multiflorum, soil, 840 h, 40 gai/ha, read-out: Measured fresh weight inhibition rate (%)): 93.4%
